{"source": "paper PMC7957578", "about": "“N-(1,3,4-Oxadiazol-2-yl)Benzamides as Antibacterial Agents against Neisseria gonorrhoeae” (International Journal of Molecular Sciences, 2021)", "key": {"[1]": {"test_system": "N. gonorrhoeae strain 181", "test": "MIC by broth microdilution against N. gonorrhoeae strain 181", "type": "cell-based, Neisseria gonorrhoeae", "conditions": "N. gonorrhoeae strain 181", "protocol": "(§1) Briefly, bacteria were grown overnight on chocolate agar II at 37° C in the presence of 5% CO2. Afterwards, a bacterial suspension equivalent to 1.0 McFarland standard was prepared and diluted in brucella broth supplemented with yeast extract, neopeptone, hematin, pyridoxal, and NAD. Test agents were added in the first row of the 96-well plates and serially diluted along the plates. Plates were then incubated at 37° C in the presence of 5% CO2 for 24 h. […] Plates were then incubated at 37 ° C in the presence of 5% CO2 for 24 h. The MBC was categorized as the lowest concentration that reduced bacterial growth by 99.9% [45, 46, 47]."}, "N. gonorrhoeae 165": {"test_system": "N. gonorrhoeae 165", "test": "MIC/MBC against N. gonorrhoeae clinical isolate 165", "type": "cell-based", "conditions": "Neisseria gonorrhoeae", "protocol": "as §1"}, "N. gonorrhoeae 166": {"test_system": "N. gonorrhoeae 166", "test": "MIC/MBC against N. gonorrhoeae clinical isolate 166", "type": "cell-based", "conditions": "Neisseria gonorrhoeae", "protocol": "as §1"}, "N. gonorrhoeae 194": {"test_system": "N. gonorrhoeae 194", "test": "MIC/MBC against N. gonorrhoeae clinical isolate 194", "type": "cell-based", "conditions": "Neisseria gonorrhoeae", "protocol": "as §1"}, "N. gonorrhoeae 197": {"test_system": "N. gonorrhoeae 197", "test": "MIC/MBC against N. gonorrhoeae clinical isolate 197", "type": "cell-based", "conditions": "Neisseria gonorrhoeae", "protocol": "as §1"}, "N. gonorrhoeae 200": {"test_system": "N. gonorrhoeae 200", "test": "MIC/MBC against N. gonorrhoeae clinical isolate 200", "type": "cell-based", "conditions": "Neisseria gonorrhoeae", "protocol": "as §1"}, "N. gonorrhoeae WHO L": {"test_system": "N. gonorrhoeae WHO L", "test": "MIC/MBC against N. gonorrhoeae WHO L reference strain", "type": "cell-based", "conditions": "Neisseria gonorrhoeae", "protocol": "as §1"}, "[2]": {"test_system": "panel drug-resistant pathogenic N. gonorrhoeae strains", "test": "MIC/MBC against a panel of drug-resistant N. gonorrhoeae strains", "type": "cell-based, Neisseria gonorrhoeae", "conditions": "MBC the same as or one-fold higher than MIC"}, "S. aureus ATCC 25923": {"test_system": "S. aureus ATCC 25923", "test": "MIC/MBC (CLSI broth microdilution) against S. aureus ATCC 25923", "type": "cell-based", "conditions": "Staphylococcus aureus, ATCC25923, S. aureus ATCC 25923", "protocol": "(§2) The minimum inhibitory concentrations (MICs) of the tested compounds and control drugs, linezolid, vancomycin, and gentamicin, were determined using the broth microdilution method according to the guidelines outlined by the Clinical and Laboratory Standards Institute (CLSI) against clinically relevant bacterial (Staphylococcus aureus, MRSA, Escherichia coli, Enterococcus faecalis and Enterococcus faecium strains. S. aureus, MRSA, E. coli, Enterococcus faecalis and Enterococcus faecium were grown aerobically overnight on tryptone soy agar (TSA) plates at 37° C. Afterwards, a bacterial solution equivalent to 0.5 McFarland standard was prepared and diluted in cation-adjusted Mueller–Hinton broth (CAMHB) (for S. aureus, MRSA, and E. coli) to achieve a bacterial concentration of about 5 × 10^5 CFU/mL. Enterococcus faecalis and Enterococcus faecium 0.5 McFarland standard solution was diluted in tryptone soy broth (TSB) to achieve a bacterial concentration of about 5 × 10^5 CFU/mL. Compounds and control drugs were added in the first row of 96-well plates and serially diluted with the corresponding media containing bacteria. Plates were then incubated as previously described. […] The minimum bactericidal concentration (MBC) was tested by spotting 4 µL from wells with no growth onto TSA plates. Plates were incubated at 37 ° C for at least 18 h before recording the MBC. The MBC was categorized as the lowest concentration that reduced bacterial growth by 99.9% [45, 46, 47]."}, "MRSA USA300": {"test_system": "MRSA USA300", "test": "MIC/MBC (CLSI broth microdilution) against MRSA USA300", "type": "cell-based, methicillin-resistant Staphylococcus aureus", "conditions": "Staphylococcus aureus, MRSA USA300", "protocol": "as §2"}, "E. faecalis ATCC 29212": {"test_system": "E. faecalis ATCC 29212", "test": "MIC/MBC (CLSI broth microdilution) against E. faecalis ATCC 29212", "type": "cell-based", "conditions": "Enterococcus faecalis, ATCC29212, E. faecalis ATCC 29212", "protocol": "as §2"}, "VRE. faecalisATCC 51575": {"test_system": "VRE. faecalisATCC 51575", "test": "MIC/MBC (CLSI broth microdilution) against VRE faecalis ATCC 51575", "type": "cell-based", "conditions": "Enterococcus, VRE faecalis ATCC 51575", "protocol": "as §2"}, "VRE. faecalis ATCC 51299": {"test_system": "VRE. faecalis ATCC 51299", "test": "MIC/MBC (CLSI broth microdilution) against VRE faecalis ATCC 51299", "type": "cell-based", "conditions": "Enterococcus, VRE faecalis ATCC 51299", "protocol": "as §2"}, "VRE. faecium ATCC 700221": {"test_system": "VRE. faecium ATCC 700221", "test": "MIC/MBC (CLSI broth microdilution) against VRE faecium ATCC 700221", "type": "cell-based", "conditions": "Enterococcus, VRE faecium ATCC 700221", "protocol": "as §2"}, "[3]": {"test_system": "L. monocytogenes ATCC 19115", "test": "MIC/MBC (CLSI broth microdilution) against L. monocytogenes ATCC 19115", "type": "cell-based", "conditions": "Listeria monocytogenes, ATCC19115, L. monocytogenes ATCC 19115"}, "[4]": {"test_system": "E. coli BW25113 (wild-type strain)", "test": "MIC/MBC (CLSI broth microdilution) against E. coli BW25113 wild type", "type": "cell-based, Escherichia coli", "conditions": "E. coli BW25113 wild-type strain", "protocol": "as §2"}, "[5]": {"test_system": "E. coli JW55031 (TolC Mutant)", "test": "MIC/MBC (CLSI broth microdilution) against E. coli TolC mutant", "type": "cell-based", "conditions": "Escherichia coli", "protocol": "as §2"}, "N. gonorrhoeae": {"test_system": "N. gonorrhoeae", "test": "MIC against N. gonorrhoeae in presence of fetal bovine serum", "type": "cell-based", "conditions": "Neisseria gonorrhoeae, 24 h"}, "[6]": {"test_system": "tested bacterial strains (Table 3)", "test": "MBC versus MIC against the panel of Gram-positive and Gram-negative pathogens", "type": "cell-based", "conditions": "MBCs more than three-fold higher than MICs, strains of Table 3", "protocol": "While the focus of these new N-(1,3,4-oxadiazol-2-yl)benzamides is towards N. gonorrhoeae, we proceeded to test their activity against other Gram-positive and Gram-negative pathogens. Intriguingly, HSGN-235, HSGN-237, and HSGN-238 had potent activity against the tested Gram-positive bacterial pathogens. For instance, all three compounds had potent activity against the staphylococcal strains, with MICs ranging from 0.25 to 1 µg/mL (Table 3). Furthermore, HSGN-235, HSGN-237, and HSGN-238 maintained potent activity against clinically relevant Gram-positive bacterial pathogens such as vancomycin-resistant enterococci (VRE) and Listeria monocytogenes (Table 3). Additionally, we moved to test if HSGN-235, HSGN-237, and HSGN-238 were active against other Gram-negative bacterial pathogens. […] This lack of activity against Gram-negative bacteria appears to be due to HSGN-235, HSGN-237, and HSGN-238 being a substrate for efflux.\nThe minimum inhibitory concentrations (MICs) of the tested compounds and control drugs, linezolid, vancomycin, and gentamicin, were determined using the broth microdilution method according to the guidelines outlined by the Clinical and Laboratory Standards Institute (CLSI) against clinically relevant bacterial (Staphylococcus aureus, MRSA, Escherichia coli, Enterococcus faecalis and Enterococcus faecium strains. S. aureus, MRSA, E. coli, Enterococcus faecalis and Enterococcus faecium were grown aerobically overnight on tryptone soy agar (TSA) plates at 37° C. Afterwards, a bacterial solution equivalent to 0.5 McFarland standard was prepared and diluted in cation-adjusted Mueller–Hinton broth (CAMHB) (for S. aureus, MRSA, and E. coli) to achieve a bacterial concentration of about 5 × 10^5 CFU/mL. Enterococcus faecalis and Enterococcus faecium 0.5 McFarland standard solution was diluted in tryptone soy broth (TSB) to achieve a bacterial concentration of about 5 × 10^5 CFU/mL. Compounds and control drugs were added in the first row of 96-well plates and serially diluted with the corresponding media containing bacteria. […]"}}, "note": "Where two headings read alike, the source gives them in different places.", "data": [{"compound": "O=C(Nc1nnc(-c2ccc(C(F)(F)F)cc2)o1)c1ccc(OC(F)(F)F)c(F)c1", "note": "[HSGN-235, 3-Fluoro-4-(trifluoromethoxy)-N-(5-(4-(trifluoromethyl)phenyl)-1,3,4-oxadiazol-2-yl)benzamide]", "values": [{"measurement": "MIC", "setting": "[1]", "result": "moderate activity"}, {"measurement": "MIC", "setting": "[1]; Neisseria gonorrhoeae, read-out: MIC", "result": 16, "unit": "µg/mL"}, {"measurement": "MBC", "setting": "N. gonorrhoeae 165", "result": 2, "unit": "µg/mL"}, {"measurement": "MIC", "setting": "N. gonorrhoeae 165", "result": 2, "unit": "µg/mL"}, {"measurement": "MBC", "setting": "N. gonorrhoeae 166", "result": 2, "unit": "µg/mL"}, {"measurement": "MIC", "setting": "N. gonorrhoeae 166", "result": 2, "unit": "µg/mL"}, {"measurement": "MBC", "setting": "N. gonorrhoeae 194", "result": 1, "unit": "µg/mL"}, {"measurement": "MIC", "setting": "N. gonorrhoeae 194", "result": 1, "unit": "µg/mL"}, {"measurement": "MBC", "setting": "N. gonorrhoeae 197", "result": 2, "unit": "µg/mL"}, {"measurement": "MIC", "setting": "N. gonorrhoeae 197", "result": 1, "unit": "µg/mL"}, {"measurement": "MBC", "setting": "N. gonorrhoeae 200", "result": 2, "unit": "µg/mL"}, {"measurement": "MIC", "setting": "N. gonorrhoeae 200", "result": 2, "unit": "µg/mL"}, {"measurement": "MBC", "setting": "N. gonorrhoeae WHO L", "result": 2, "unit": "µg/mL"}, {"measurement": "MIC", "setting": "N. gonorrhoeae WHO L", "result": 1, "unit": "µg/mL"}, {"measurement": "type of activity from MBC versus MIC", "setting": "[2]", "result": "bactericidal activity"}, {"measurement": "MBC", "setting": "S. aureus ATCC 25923; read-out: MBC", "result": "> 64", "unit": "µg/mL"}, {"measurement": "MIC", "setting": "S. aureus ATCC 25923; read-out: MIC", "result": 1, "unit": "µg/mL"}, {"measurement": "MBC", "setting": "MRSA USA300; read-out: MBC", "result": 64, "unit": "µg/mL"}, {"measurement": "MIC", "setting": "MRSA USA300; read-out: MIC", "result": 0.5, "unit": "µg/mL"}, {"measurement": "MBC", "setting": "E. faecalis ATCC 29212; read-out: MBC", "result": 32, "unit": "µg/mL"}, {"measurement": "MIC", "setting": "E. faecalis ATCC 29212; read-out: MIC", "result": 4, "unit": "µg/mL"}, {"measurement": "MBC", "setting": "VRE. faecalisATCC 51575; read-out: MBC", "result": "> 64", "unit": "µg/mL"}, {"measurement": "MIC", "setting": "VRE. faecalisATCC 51575; read-out: MIC", "result": 2, "unit": "µg/mL"}, {"measurement": "MBC", "setting": "VRE. faecalis ATCC 51299; read-out: MBC", "result": 64, "unit": "µg/mL"}, {"measurement": "MIC", "setting": "VRE. faecalis ATCC 51299; read-out: MIC", "result": 1, "unit": "µg/mL"}, {"measurement": "MBC", "setting": "VRE. faecium ATCC 700221; read-out: MBC", "result": 32, "unit": "µg/mL"}, {"measurement": "MIC", "setting": "VRE. faecium ATCC 700221; read-out: MIC", "result": 1, "unit": "µg/mL"}, {"measurement": "MBC", "setting": "[3]; read-out: MBC", "result": 64, "unit": "µg/mL"}, {"measurement": "MIC", "setting": "[3]; read-out: MIC", "result": 1, "unit": "µg/mL"}, {"measurement": "MIC", "setting": "[4]", "result": ">8", "unit": "µg/mL"}, {"measurement": "MBC", "setting": "[4]; Escherichia coli, read-out: MBC", "result": "> 8", "unit": "µg/mL"}, {"measurement": "MIC", "setting": "[4]; Escherichia coli, read-out: MIC", "result": "> 8", "unit": "µg/mL"}, {"measurement": "MBC", "setting": "[5]", "result": "> 64", "unit": "µg/mL"}, {"measurement": "MIC", "setting": "[5]", "result": 4, "unit": "µg/mL"}, {"measurement": "MIC", "setting": "N. gonorrhoeae; 5% FBS added to the media", "result": 4, "unit": "µg/mL"}, {"measurement": "MIC", "setting": "N. gonorrhoeae; 10% FBS added to the media", "result": 8, "unit": "µg/mL"}, {"measurement": "type of activity from MBC versus MIC", "setting": "[6]", "result": "bacteriostatic agents"}]}]}
